# How the values were obtained:
# [1] = system: MCF7 (metastatic) cells adhering to endothelial cells; experiment: Endothelial static adhesion assay with or without antibodies and peptides; format: cell-based; settings: peptide and corresponding peptide conjugate; compared to BT474 (non-metastatic) cells; 12 replicates; FIG. 15
# Description: MCF7 and HUVEC cells were grown in 24 well cell culture plates to 70% confluency the cells were treated with Dharmafect™ transfection reagent and 5 uM of plectin siRNAs or scrambled negative control for 24 hrs. Some HUVEC and MCF7 cells were non-treated. HUVEC cells were activated by treating with 10 ug/ml TNFa in complete medium for 2 hrs at 37° C., 5% CO2. MCF7 breast cancer cells were grown in T75 flasks until 70% confluency and treated with 10 mg/ml HTPS in complete medium for 2 hrs at 37° C., 5% CO2. HTPS was removed and cells were washed with 10 ml of PBS 5 times until the wash ran clear. Cells were scraped and counted. 20,000 cells/ml was prepared. MCF7 cells were treated with either 500 ul of EVs isolated using the extraction method outlined above, or 500 ul of PBS for 10 mins at RT. EVs or PBS was removed and 1 ml of MCF7 cells were added to HUVEC cells and incubated at 37° C., 5% CO2 for 10 mins, before cells were removed and wells gently washed with warmed PBS to remove any unbound cells. Wells were then fixed with 4% PFA for 10 mins at RT. Fixative was removed and the wells washed 3 times with PBS and then coverslips were mounted using fluoromount. Total adhered cells per coverslip were counted.
# This was as above but using 1/1000 of stock antibodies and peptides stated below.
# [2] = system: HPA-positive BC cells binding to endothelial cells; settings: incubating cells with HPA or BSA-GalNAc; 'It has been shown'; cited from earlier work
# [3] = system: MCF7 breast cancer cell adhesion to endothelial cells (HUVEC); experiment: Endothelial static adhesion assay with recombinant plectin; format: cell-based; settings: MCF7 treated with 0.1 ug/ml recombinant plectin for 10 mins, compared to untreated, FIG. 6
# Description: Coverslips with activated endothelial cells were prepared as above. MCF7 breast cancer cells were grown in T75 flasks until 70% confluency and treated with 10 mg/ml HTPS in complete medium for 2 hrs at 37° C., 5% CO2. HTPS was removed and cells were washed with 10 ml of PBS 5 times until the wash ran clear. Cells were scraped and counted. 20,000 cells/ml was prepared. MCF7 cells were treated with either 0.1 ug/ml recombinant plectin, (2b Scientific SKU RPC754Hu01 (residues Asp 175-Pro 400 (SEQ ID NO: 1) of human plectin Uniprot ID Q15149, corresponding to the actin-binding domain), in PBS or PBS for 10 mins at RT. Recombinant plectin or PBS were removed from cells and 20,000 cells/ml of MCF7 cells were added per well and incubated for 10 mins, cells were removed and wells gently washed with warmed PBS to remove any unbound cells. Wells were then fixed with 4% PFA for 10 mins at RT. Fixative was removed and the wells washed 3 times with PBS and then coverslips were mounted using fluoromount. Total adhered cells per coverslip were counted.
# Sterilised 13 mm D glass coverslips were placed in wells of 24 well plate and 100,000 HUVEC cells were seeded. Cells were incubated at 37° C. with 5% CO2 atmosphere until cells became a monolayer. HUVEC cells were activated by treating with 10 ug/ml TNFa in complete medium for 2 hrs at 37° C., 5% CO2.
molecule,measurement,setting,value
AVIYGGVQ [SEQ7],MCF7 (metastatic) cells binding to endothelial cells (peptide),[1],specifically reduces MCF7 (metastatic) cells binding to endothelial cells in a concentration dependant manner
BSA-GalNAc: GalNAc sugar conjugated to BSA,BC cell binding to endothelial cells,[2],inhibits cells binding
"recombinant plectin: 2b Scientific RPC754Hu01, residues Asp 175-Pro 400 (SEQ ID NO: 1) of human plectin, the actin-binding domain (protein, listed as Homo sapiens) DERDRVQKKTFTKWVNKHLIKAQRHISDLYEDLRDGHNLISLLEVLSGDSLPREKGRMRFHKLQNVQIALDYLRHRQVKLVNIRNDDIADGNPKLTLGLIWTIILHFQISDIQVSGQSEDMTAKEKLLLWSQRMVEGYQGLRCDNFTSSWRDGRLFNAIIHRHKPLLIDMNKVYRQTNLENLDQAFSVAERDLGVTRLLDPEDVDVPQPDEKSIITYVSSLYDAMP",Cell adhesion of MCF7 to endothelial cells,[3],significantly decreases
same,Cell adhesion of MCF7 to endothelial cells,[3]; listed as recombinant plectin fragment,significantly reduced
